Test results from patent US20240182475A1 (Université de Lausanne, priority 2021, published 2024).
One block for each compound: values may come before it.

Legend:
[1] = tested on: MOVAS cells; experiment: Cytotoxicity assay, LDH release; type: cell-based, mouse
Procedure: A) Alizarin red staining of MOVAS cells stimulated with CPP for 24 h in DMEM+10% FBS in presence of different concentrations of compound 22401. […] The background (Alizarin red staining obtained with cells in the absence of CPP) was subtracted from all values. B) Percentage of cytotoxicity, as measured by LDH release, in MOVAS cells in the same conditions as A). Statistical analysis was determined using one-way ANOVA with *p<0.05, **p<0.01, ***p<0.001.
Measurement of lactate dehydrogenase (LDH) as a means of cytotoxicity assay was performed with using CytoTox-ONE Homogeneous Membrane Integrity Assay (Promega) according to the manufacturer's instructions. Values were calculated as percentage of cytotoxicity using the following formula: [(value in sample)−(background)]/[(value in Triton X-100-treated sample)−(background)]×100.

[2] = tested on: MOVAS cells; experiment: MOVAS cell calcification assay (Alizarin red); type: cell-based, mouse; settings: Mus musculus, MOVAS, read-out: Calcification assay Max calcification inhibition (%) at the indicated dose of compound
Procedure: A) Alizarin red staining of MOVAS cells stimulated with sCPP for 24 h in DMEM+10% FBS and treated or not with 50 uM of compounds. […] Statistical analysis was determined using one-way ANOVA with ***p<0.001. C) Percentage of cytotoxicity (LDH %) in MOVAS treated or not with compounds for 24 h. D) MOVAS cells were seeded onto half-area 96-well plate and incubated overnight. Then C5 or C6 at 50 uM or vehicle (DMSO), L-cysteine at 10 mM, PLP at 5 uM and the H2S sensitive fluorescent probe AzMC at 10 μM were added. The fluorescence was immediately measured in kinetic mode for 2 h at 37° C. with SpectraMax M5 reader, with excitation and emission wavelengths of 365 nm and 450 nm, respectively.
A) Alizarin red staining of Movas cells stimulated with sCPP for 24 h in DMEM+10% FBS and treated or not with 50 uM of Z20. […] C) Percentage of cytotoxicity (LDH %) in murine chondrocytes treated or not with Z20 for 24 h. Statistical analysis was determined using one-way ANOVA with ***p<0.001.
Alizarin red staining of MOVAS cells stimulated with sCPP for 24 h in DMEM+10% FBS and treated or not with different concentrations of compounds (A: C6) and (B: Z20). The graphs show Alizarin red absorbance at 570-630 nm. Statistical analysis was determined using one-way ANOVA with *p<0.05, **p<0.01, ***p<0.001.
CPP were generated by preparing 20 ml DMEM containing 10% FBS, 1 mmol/L CaCl2, 3.5 mmol/L inorganic phosphate (1.36 mmol/L NaH2PO4 and 2.14 mmol/L Na2HPO4) (Aghagolzadeh et al. Atherosclerosis, 2016). After 7 days incubation at 37° C., the suspension was centrifuged at 25000 g for 2 h at 4° C., and the pellet containing CPP was resuspended in 1 ml DMEM and stored at −20° C. until further use.
Mouse vascular smooth muscle cell line (MOVAS) cells were cultured according to the manufacturer's guidelines in DMEM culture medium supplemented with 10% FBS. Cells were cultured at 37° C. in a humidified atmosphere with 5% CO2. All cell culture experiments in 96-well plates were performed in triplicates and were repeated independently two times.
For calcification experiments, cells were seeded in 96-well plates at a density of 50,000 cells/well and left to attach for 18 h. Calcification of cell monolayers was induced by CPP (equivalent to 50 μg Ca/mL) for 24 h at 37° C., 5% CO2 in presence of various concentrations of compounds (all in final 0.1% DMSO), or of 0.1% DMSO as a control, to reach a final volume of 200 μl/well. Calcium deposition was assessed by 0.5% w/v Alizarin Red staining (pH 4.2). Briefly, after PBS washing, methanol fixation for 10 min at 4° C., and milli-Q water washing, cells were incubated for 60 min with 200 μL Alizarin Red solution and then washed four times with milli-Q water. Quantification was performed after crystal dissolution with cetylpyridinium chloride (10%) for 18 h. The absorbance was measured at 570 and 630 nm using the Spectramax M5e reader (Molecular Devices). The background (alizarin red staining obtained with cells in the absence of CPP) was subtracted from all values.

[3] = molecular target: recombinant human CSE (Homo sapiens, UniProt P32929); experiment: CSE activity (AzMC probe assay), H2S production by recombinant human CSE; type: biochemical; settings: for CSE activity (AZMC probe assay) % of activation: (RFU compound max - RFU compound 0/RFU CSE 2 ug - RFU compound 0)*100; for EC50: EC50 calculated by the four-parameter logistic model
Chain of recombinant human CSE (P32929 whole entry): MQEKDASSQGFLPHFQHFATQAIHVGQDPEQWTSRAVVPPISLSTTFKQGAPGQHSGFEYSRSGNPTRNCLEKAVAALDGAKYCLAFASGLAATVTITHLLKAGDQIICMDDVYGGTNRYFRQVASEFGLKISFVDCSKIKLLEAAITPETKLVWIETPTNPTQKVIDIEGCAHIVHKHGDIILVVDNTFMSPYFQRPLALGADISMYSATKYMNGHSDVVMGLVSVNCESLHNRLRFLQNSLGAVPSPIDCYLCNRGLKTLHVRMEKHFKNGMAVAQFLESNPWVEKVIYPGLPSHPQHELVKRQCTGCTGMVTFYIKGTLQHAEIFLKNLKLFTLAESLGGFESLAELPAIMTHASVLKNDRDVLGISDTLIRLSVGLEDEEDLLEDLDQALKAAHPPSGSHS
Procedure: The activity of recombinant human CSE (rCSE) was tested in the presence of C5, compound 8 (50 uM), Z20 compound 13 (50 uM) or vehicle (DMSO). Briefly, compounds were added in reaction buffer (50 mM Tris-HCl, pH 8) containing 2 μg of rCSE, 10 mM CSE substrate L-cysteine, 5 uM pyridoxal 5′-phosphate (PLP). After addition of 10 μM of the H2S sensitive fluorescent probe 7-azido-4-methylcoumarin (AzMC) in a total volume of 100 μl, fluorescence was immediately measured in kinetic mode for 2 h at 37° C. with SpectraMax M5 reader, with excitation and emission wavelengths of 365 nm and 450 nm, respectively. Statistical analysis was determined using simple linear regression with p<0.0001 for C5 vs. vehicle and p<0.0002 for Z20 vs. vehicle.
Recombinant human CSE (1 μg/well) was incubated with various concentrations of compounds (all in final 0.1% DMSO), or with 0.1% DMSO as a control, in 10 mM sodium phosphate buffer pH 8.2. Next, 10 mM L-cysteine and 1 mM PLP and 10 μM of the probe AzMC were then added to reach 100 μL total volume. Fluorescence was measured for 3 h at 37° C. with excitation and emission wavelengths of 365 nm and 450 nm, respectively, in a 96-well half area black plate with transparent bottom.
Dose-response curve of each compound was performed, using triplicate wells for each tested doses. The background (10 mM sodium phosphate buffer with L-cysteine, PLP and AzMC) was subtracted from all values. Each mean value was converted to percent activity (0% defined as the smallest mean in each data set, 100% defined as the highest mean in each data set). The data were normalized using the four parameter logistic model (4PL) equation to calculate EC50 using GraphPad Prism.

CSE activity (AZMC probe assay) % of activation [3]: 109% | EC50 [3]: 43 nM
Structure (SMILES): O=[N+]([O-])c1ccc(Nc2cnn(CC3CCCO3)c2)cc1 (centres unmarked) [Compound 35, N-(4-nitrophenyl)-1-((tetrahydrofuran-2-yl)methyl)-1H-pyrazol-4-amine]
Cytotoxicity assay LDH release (% of cytotoxicity) ([1]; at 0.3 uM): 4% at | inhibition at 0.3 µM [2]: 23%

CSE activity (AZMC probe assay) % of activation [3]: 62% | EC50 [3]: 15.8 nM
Structure (SMILES): O=C(Nc1cnn(CC2CCCO2)c1)c1ccccc1 (centres unmarked) [Compound 36, N-(1-((tetrahydrofuran-2-yl)methyl)-1H-pyrazol-4-yl)benzamide]
Cytotoxicity assay LDH release (% of cytotoxicity) ([1]; at 0.07 uM): 12% at | inhibition at 0.07 µM ([2]; at 0.07 uM): 42%

CSE activity (AZMC probe assay) % of activation [3]: 33% | EC50 [3]: 137 nM
Structure (SMILES): O=C(Nc1cnn(CC2CCCO2)c1)c1cccc(F)c1 (centres unmarked) [Compound 39, 3-fluoro-N-(1-((tetrahydrofuran-2-yl)methyl)-1H-pyrazol-4-yl)benzamide]
Cytotoxicity assay LDH release (% of cytotoxicity) ([1]; at 20 uM): 8% at | inhibition at 20 µM [2]: 30%

CSE activity (AZMC probe assay) % of activation [3]: 65% | EC50 [3]: 4.4 nM
Structure (SMILES): O=C(Nc1cnn(CC2CCCO2)c1)c1ccc2ccccc2c1 (centres unmarked) [Compound 40, N-(1-((tetrahydrofuran-2-yl)methyl)-1H-pyrazol-4-yl)-2-naphthamide]
Cytotoxicity assay LDH release (% of cytotoxicity) ([1]; at 0.3 uM): 10% at | inhibition at 0.3 µM [2]: 56%

CSE activity (AZMC probe assay) % of activation [3]: 73% | EC50 [3]: 29 nM
Structure (SMILES): O=C(Nc1cnn(CC2CCCO2)c1)c1cccc2[nH]ccc12 (centres unmarked) [Compound 44, N-(1-((tetrahydrofuran-2-yl)methyl)-1H-pyrazol-4-yl)-1H-indole-4-carboxamide]
Cytotoxicity assay LDH release (% of cytotoxicity) ([1]; at 0.3 uM): 12% at | inhibition at 0.3 µM [2]: 37%

CSE activity (AZMC probe assay) % of activation [3]: 59% | EC50 [3]: 39.6 nM
Structure (SMILES): N#Cc1cccc(C(=O)Nc2cnn(CC3CCCO3)c2)c1 (centres unmarked) [Compound 45, 3-cyano-N-(1-((tetrahydrofuran-2-yl)methyl)-1H-pyrazol-4-yl)benzamide]
Cytotoxicity assay LDH release (% of cytotoxicity) ([1]; at 5 uM): 12% at | inhibition at 5 µM ([2]; at 5 uM): 57%

The remaining lines, values behind:

Structure (SMILES): CCn1cnc2c(Nc3cnn(CC4CCCO4)c3)ncnc21 (centres unmarked) [Compound 19, 9-ethyl-N-(1-((tetrahydrofuran-2-yl)methyl)-1H-pyrazol-4-yl)-9H-purin-6-amine]
Cytotoxicity assay LDH release (% of cytotoxicity) ([1]; at 50 uM): 15% at | inhibition at 50 µM ([2]; at 50 uM): 48% | CSE activity (AZMC probe assay) % of activation [3]: 28% | EC50 [3]: 41.8 nM

Structure (SMILES): c1cc(Nc2cnn(CC3CCCO3)c2)ncn1 (centres unmarked) [Compound 20, N-(1-((tetrahydrofuran-2-yl)methyl)-1H-pyrazol-4-yl)pyrimidin-4-amine]
Cytotoxicity assay LDH release (% of cytotoxicity) ([1]; at 20 uM): 16% at | inhibition at 20 µM [2]: 23% | CSE activity (AZMC probe assay) % of activation [3]: 46% | EC50 [3]: 21 nM

Structure (SMILES): CCn1cnc2c(Nc3cnn(C)c3)ncnc21 [Compound 25, 9-ethyl-N-(1-methyl-1H-pyrazol-4-yl)-9H-purin-6-amine]
Cytotoxicity assay LDH release (% of cytotoxicity) ([1]; no dose given): 20% | CSE activity (AZMC probe assay) % of activation [3]: 56% | EC50 [3]: 26 nM

Structure (SMILES): Cn1cc(Nc2ncccn2)cn1 [Compound 26, N-(1-methyl-1H-pyrazol-4-yl)pyrimidin-2-amine]
Cytotoxicity assay LDH release (% of cytotoxicity) ([1]; no dose given): 20% | CSE activity (AZMC probe assay) % of activation [3]: 57% | EC50 [3]: 38.5 nM

Structure (SMILES): CCn1cnc2c(Nc3cnn(CC4CCCCC4)c3)ncnc21 [Compound 30, N-(1-(cyclohexylmethyl)-1H-pyrazol-4-yl)-9-ethyl-9H-purin-6-amine]
Cytotoxicity assay LDH release (% of cytotoxicity) ([1]; at 20 uM): 5% at | inhibition at 20 µM [2]: 80% | CSE activity (AZMC probe assay) % of activation [3]: 39% | EC50 [3]: 31.8 nM

Structure (SMILES): c1cnc(Nc2cnn(CC3CCCCC3)c2)nc1 [Compound 31, N-(1-(cyclohexylmethyl)-1H-pyrazol-4-yl)pyrimidin-2-amine]
Cytotoxicity assay LDH release (% of cytotoxicity) ([1]; no dose given): 15% | CSE activity (AZMC probe assay) % of activation [3]: 61% | EC50 [3]: 67.4 nM

Structure (SMILES): c1cnc(Nc2cnn(CC3CCCO3)c2)nc1 (centres unmarked) [Compound 32]
Cytotoxicity assay LDH release (% of cytotoxicity) ([1]; at 2 uM): 15% at | inhibition at 2 µM ([2]; at 2 uM): 36% | CSE activity (AZMC probe assay) % of activation [3]: 76% | EC50 [3]: 35.2 nM

Structure (SMILES): CCCn1cc(Nc2ncnc3c2ncn3CC)cn1 [Compound 33, 9-ethyl-N-(1-propyl-1H-pyrazol-4-yl)-9H-purin-6-amine]
Cytotoxicity assay LDH release (% of cytotoxicity) ([1]; no dose given): 20% | CSE activity (AZMC probe assay) % of activation [3]: 59% | EC50 [3]: 19.7 nM

Structure (SMILES): CCn1cnc2c(Nc3cnn(Cc4ccccn4)c3)ncnc21 [Compound 34, 9-ethyl-N-(1-(pyridin-2-ylmethyl)-1H-pyrazol-4-yl)-9H-purin-6-amine]
Cytotoxicity assay LDH release (% of cytotoxicity) ([1]; no dose given): 20% | CSE activity (AZMC probe assay) % of activation [3]: 35% | EC50 [3]: 31.7 nM

Structure (SMILES): CCn1cnc2c(Nc3cnn(CCOC)c3)ncnc21 [Compound 47, 9-ethyl-N-(1-(2-methoxyethyl)-1H-pyrazol-4-yl)-9H-purin-6-amine]
Cytotoxicity assay LDH release (% of cytotoxicity) ([1]; at 20 uM): 25% at | inhibition at 20 µM [2]: 37% | CSE activity (AZMC probe assay) % of activation [3]: 106% | EC50 [3]: 38.9 nM
